Experimental data taken from patent US10316056B2, “Chemical compounds and use thereof for improving muscular quality” (BIOPHYTIS, priority 2014, dated 2019).

What follows are compounds tested on myostatin gene expression in C2C12 cells (assay: Inhibition of myostatin expression in C2C12 cells (qPCR)). Details: Mus musculus, percentage myostatin gene expression in cells in contact with the compounds related to control cells, C2C12, 6 h.
Type: cell-based
Description: After several experiments in which the C2C12 cells differentiated into myotubes were incubated in the presence of IGF-1 or 20E for 2 h 30 or 6 h, two screening tests were developed. Thus, the phosphorylation of the S6 protein kinase and the expression of the myostatin gene were studied in order to determine their modulation by a growth hormone or an ecdysone and to characterize these modulations from a statistical point of view. The C2C12 myoblast cells (ATCC CRL-1772) are seeded into 24-well plates at a density of 30 000 cells per well and cultured in a DMEM medium containing glucose in a proportion of 4.5 g/l and supplemented with fetal calf serum (10%) and with antibiotics (penicillin and streptomycin). Forty-eight hours later, the myoblasts are induced to differentiate by partial serum depletion (2% instead of 10%) for 5 days. The cells are then placed in a medium which is glucose-depleted (DMEM containing 1 g/l of glucose) and serum-free in the presence of the test molecules or of the references (100 ng/ml IGF-1 or 10 μ[…]) for 6 h. At the end of the experiment, the messenger RNAs (mRNAs) are extracted using the conventional methodology based on phenol and chloroform. Briefly, the cells are lysed in a Trizol solution (Sigma T9424) containing a strong acid and phenol. The mRNAs are separated from the proteins by addition of chloroform and then centrifugation. They are then precipitated from isopropanol and then suspended at a concentration of 1 μg/μl in an […] ultrapure water. 1 μg of mRNA is then converted by reverse transcription into complementary DNA by the AMV enzyme in the presence of a primer and of a mixture of nucleotides according to the protocol given by the supplier (Applied Biosystems 4368814). […] The qPCRs are carried out on a 7900HT Fast real-Time PCR detection system (Applied Biosystems). The programming conditions are standard and consist of 1 cycle at 95° C. for 15 min, followed by 40 cycles at 95° C. for 15 s and at 60° C. for 1 min and the program ends with a melt curve step between 60° C. and 95° C. […] Fluorescent probes bind to the double-stranded DNA and are fluorescent only once bound to the DNA. A fluorescence threshold is established by the machine's program. When the amount of DNA allows the fluorescent probe to exceed this threshold, a PCR cycle number, called “Ct” for “Cycle Threshold”, is obtained. It is this value which forms the basis of the calculations to quantify the DNA relatively. A ratio R is established between the amount of starting DNA of a sample and that of a control, which has not undergone treatment (i.e. […] R=2^-ΔΔCt).

Row | SMILES | mrna remaining at 10 µM [%]
1 | CO/N=C(/C)[C@H]1CC[C@@]2(O)C3=CC(=O)[C@@H]4C[C@@H](O)[C@@H](O)C[C@]4(C)C3CC[C@]12C (stereo partly drawn) [Compound 25, (2S,3R,5R,10R,13R,14S,17S)-17-(N-methoxy-C-methylcarbonimidoyl)-2,3,14-trihydroxy-10,13-dimethyl-2,3,4,5,9,11,12,15,16,17-decahydro-1H-cyclopenta[a]phenanthren-6-one] | < 70
2 | C/C(=N/OCCN(C)C)[C@H]1CC[C@@]2(O)C3=CC(=O)[C@@H]4C[C@@H](O)[C@@H](O)C[C@]4(C)C3CC[C@]12C (stereo partly drawn) [Compound 35, (2S,3R,5R,10R,13R,14S,17S)-17-(N-(2-dimethylaminoethoxy)-C-methylcarbonimidoyl)-2,3,14-trihydroxy-10,13-dimethyl-2,3,4,5,9,11,12,15,16,17-decahydro-1H-cyclopenta[a]phenanthren-6-one] | 71 to 85
3 | CC(C)=CCO/N=C(/C)[C@H]1CC[C@@]2(O)C3=CC(=O)[C@@H]4C[C@@H](O)[C@@H](O)C[C@]4(C)C3CC[C@]12C (stereo partly drawn) [Compound 30, (2S,3R,5R,10R,13R,14S,17S)-2,3,14-trihydroxy-10,13-dimethyl-17-(C-methyl-N-(3-methylbut-2-enoxy)carbonimidoyl)-2,3,4,5,9,11,12,15,16,17-decahydro-1H-cyclopenta[a]phenanthren-6-one] | 71 to 85
4 | COCC(=O)N(C1CC1)C(C)[C@H]1CC[C@@]2(O)C3=CC(=O)[C@@H]4C[C@@H](O)[C@@H](O)C[C@]4(C)C3CC[C@]12C (stereo partly drawn) [Compound 54, N-cyclopropyl-2-methoxy-N-[1-[(2S,3R,5R,10R,13R,14S,17S)-2,3,14-trihydroxy-10,13-dimethyl-6-oxo-2,3,4,5,9,11,12,15,16,17-decahydro-1H-cyclopenta[a]phenanthren-17-yl]ethyl]acetacetamide] | < 70
5 | COC(CN(C(=O)C1CC1)C(C)[C@H]1CC[C@@]2(O)C3=CC(=O)[C@@H]4C[C@@H](O)[C@@H](O)C[C@]4(C)C3CC[C@]12C)OC (stereo partly drawn) [Compound 65, N-(2,2-dimethoxyethyl)-N-[1-[(2S,3R,5R,10R,13R,14S,17S)-2,3,14-trihydroxy-10,13-dimethyl-6-oxo-2,3,4,5,9,11,12,15,16,17-decahydro-1H-cyclopenta[a]phenanthren-17-yl]ethyl]cyclopropanecarboxamide] | < 70
6 | CCO/N=C(/C)[C@H]1CC[C@@]2(O)C3=CC(=O)[C@@H]4C[C@@H](O)[C@@H](O)C[C@]4(C)C3CC[C@]12C (stereo partly drawn) [Compound 23, (2S,3R,5R,10R,13R,14S,17S)-17-(N-ethoxy-C-methylcarbonimidoyl)-2,3,14-trihydroxy-10,13-dimethyl-2,3,4,5,9,11,12,15,16,17-decahydro-1H-cyclopenta[a]phenanthren-6-one] | 71 to 85
7 | COC(CN(C(=O)c1cccs1)C(C)[C@H]1CC[C@@]2(O)C3=CC(=O)[C@@H]4C[C@@H](O)[C@@H](O)C[C@]4(C)C3CC[C@]12C)OC (stereo partly drawn) [Compound 64, N-(2,2-dimethoxyethyl)-N-[1-[(2S,3R,5R,10R,13R,14S,17S)-2,3,14-trihydroxy-10,13-dimethyl-6-oxo-2,3,4,5,9,11,12,15,16,17-decahydro-1H-cyclopenta[a]phenanthren-17-yl]ethyl]thiophene-2-carboxamide] | < 70
8 | COC(CN(C)CC(=O)[C@H]1CC[C@@]2(O)C3=CC(=O)[C@@H]4C[C@@H](O)[C@@H](O)C[C@]4(C)C3CC[C@]12C)OC (stereo partly drawn) [Compound 85, (2S,3R,5R,10R,13R,14S,17S)-17-[2-(2,2-dimethoxyethyl(methyl)amino)acetyl]-2,3,14-trihydroxy-10,13-dimethyl-2,3,4,5,9,11,12,15,16,17-decahydro-1H-cyclopenta[a]phenanthren-6-one] | 71 to 85
9 | CC(C)=CCON=C(C)[C@H]1CC[C@@]2(O)C3=C/C(=N\O)[C@@H]4C[C@@H](O)[C@@H](O)C[C@]4(C)C3CC[C@]12C (stereo partly drawn) [Compound 21, (2S,3R,5R,10R,13R,14S,17S)-2,3,14-trihydroxy-10,13-dimethyl-17-(C-methyl-N-(3-methylbut-2-enoxy)carbonimidoyl)-2,3,4,5,9,11,12,15,16,17-decahydro-1H-cyclopenta[a]phenanthren-6-one oxime] | < 70
10 | COCCN(C(=O)N1CCOCC1)C(C)[C@H]1CC[C@@]2(O)C3=CC(=O)[C@@H]4C[C@@H](O)[C@@H](O)C[C@]4(C)C3CC[C@]12C (stereo partly drawn) [Compound 57, N-(2-methoxyethyl)-N-[1-[(2S,3R,5R,10R,13R,14S,17S)-2,3,14-trihydroxy-10,13-dimethyl-6-oxo-2,3,4,5,9,11,12,15,16,17-decahydro-1H-cyclopenta[a]phenanthren-17-yl]ethyl]morpholine-4-carboxamide] | 71 to 85
11 | COCCON=C(C)[C@H]1CC[C@@]2(O)C3=C/C(=N\OC)[C@@H]4C[C@@H](O)[C@@H](O)C[C@]4(C)C3CC[C@]12C (stereo partly drawn) [Compound 19, (2S,3R,5R,6E,10R,13R,14S,17S)-17-(N-(2-methoxyethoxy)-C-methylcarbonimidoyl)-6-methoxyimino-10,13-dimethyl-2,3,4,5,9,11,12,15,16,17-decahydro-1H-cyclopenta[a]phenanthrene-2,3,14-triol] | 71 to 85
12 | CO/N=C1\C=C2C(CC[C@]3(C)[C@@H](C(C)N(CC(F)F)C(=O)c4ccco4)CC[C@@]23O)[C@@]2(C)C[C@H](O)[C@H](O)C[C@@H]12 (stereo partly drawn) [Compound 37, N-(2,2-difluoroethyl)-N-[1-[(2S,3R,5R,6E,10R,13R,14S,17S)-2,3,14-trihydroxy-6-methoxyimino-10,13-dimethyl-2,3,4,5,9,11,12,15,16,17-decahydro-1H-cyclopenta[a]phenanthren-17-yl]ethyl]furan-2-carboxamide] | 71 to 85
13 | C/C(=N/OCCOc1ccccc1)[C@H]1CC[C@@]2(O)C3=CC(=O)[C@@H]4C[C@@H](O)[C@@H](O)C[C@]4(C)C3CC[C@]12C (stereo partly drawn) [Compound 27, (2S,3R,5R,10R,13R,14S,17S)-2,3,14-trihydroxy-10,13-dimethyl-17-(C-methyl-N-(2-phenoxyethoxy)carbonimidoyl)-2,3,4,5,9,11,12,15,16,17-decahydro-1H-cyclopenta[a]phenanthren-6-one] | < 70
14 | COCCN(C(=O)C(C)C)C(C)[C@H]1CC[C@@]2(O)C3=CC(=O)[C@@H]4C[C@@H](O)[C@@H](O)C[C@]4(C)C3CC[C@]12C (stereo partly drawn) [Compound 75, N-(2-methoxyethyl)-2-methyl-N-[1-[(2S,3R,5R,10R,13R,14S,17S)-2,3,14-trihydroxy-10,13-dimethyl-6-oxo-2,3,4,5,9,11,12,15,16,17-decahydro-1H-cyclopenta[a]phenanthren-17-yl]ethyl]propanamide] | < 70
15 | COCCN(C(=O)c1cccs1)C(C)[C@H]1CC[C@@]2(O)C3=CC(=O)[C@@H]4C[C@@H](O)[C@@H](O)C[C@]4(C)C3CC[C@]12C (stereo partly drawn) [Compound 53, N-(2-methoxyethyl)-N-[1-[(2S,3R,5R,10R,13R,14S,17S)-2,3,14-trihydroxy-10,13-dimethyl-6-oxo-2,3,4,5,9,11,12,15,16,17-decahydro-1H-cyclopenta[a]phenanthren-17-yl]ethyl]thiophene-2-carboxamide] | < 70
16 | CCON=C(C)[C@H]1CCC2C3=CC(=O)[C@@H]4C[C@@H](O)[C@@H](O)C[C@]4(C)C3CC[C@@]21C (stereo partly drawn) [Compound 5, (2S,3R,5R,10R,13S,17S)-17-(N-ethoxy-C-methylcarbonimidoyl)-2,3-dihydroxy-10,13-dimethyl-1,2,3,4,5,9,11,12,14,15,16,17-dodecahydrocyclopenta[a]phenanthren-6-one] | < 70
17 | CO/N=C1\C=C2C(CC[C@]3(C)[C@@H](C(C)N(CC(OC)OC)C(=O)C(C)C)CC[C@@]23O)[C@@]2(C)C[C@H](O)[C@H](O)C[C@@H]12 (stereo partly drawn) [Compound 38, N-(2,2-dimethoxyethyl)-2-methyl-N-[1-[(2S,3R,5R,6E,10R,13R,14S,17S)-2,3,14-trihydroxy-6-methoxyimino-10,13-dimethyl-2,3,4,5,9,11,12,15,16,17-decahydro-1H-cyclopenta[a]phenanthren-17-yl]ethyl]propanamide] | < 70
